From patent US20170107257A1, “CYCLIC APELIN ANALOGS” (LANTHIOPEP B.V., priority 2014, published 2017)
Numbered stars: 1 amine (or outer) side, 2 acyl side, 3 side chain; on linkers, the order of the positions; unused ones are H or OH. Bridge positions count the residues as written; N and C are the ends. Square brackets hold non-standard residues; d marks the D form. Ends that are not written are not given here. Peptide text beside a SMILES is read from it. ξ: configuration not given here. ξAbu(3ξ-yl) = CC(C(N[*:1])C(=O)[*:2])[*:3]; pGlu = O=C1CC[C@@H](C(=O)O)N1; X1 = CC=C(N[*:1])C(=O)[*:2]; ξC = NC(CS)C(=O)O

How the values were obtained:
[1] = Stability of apelin analogs in rat plasma; assay type: in vitro ADME; details: rat, plasma; for half-life at 0.1 mg/ml: pH 7.4
Method: Stability of apelin analogs in rat plasma. […] Samples were quenched by acidifying to final concentration of 5% TFA. Samples were analyzed on HPLC. Peak heights were plotted as relative to the initial peak heights.

hAPJ [2] = biological target: T1, hAPJ (Homo sapiens, UniProt P35414); assay: cAMP assay (DiscoverX); assay type: cell-based
T1 sequence (P35414 1-380): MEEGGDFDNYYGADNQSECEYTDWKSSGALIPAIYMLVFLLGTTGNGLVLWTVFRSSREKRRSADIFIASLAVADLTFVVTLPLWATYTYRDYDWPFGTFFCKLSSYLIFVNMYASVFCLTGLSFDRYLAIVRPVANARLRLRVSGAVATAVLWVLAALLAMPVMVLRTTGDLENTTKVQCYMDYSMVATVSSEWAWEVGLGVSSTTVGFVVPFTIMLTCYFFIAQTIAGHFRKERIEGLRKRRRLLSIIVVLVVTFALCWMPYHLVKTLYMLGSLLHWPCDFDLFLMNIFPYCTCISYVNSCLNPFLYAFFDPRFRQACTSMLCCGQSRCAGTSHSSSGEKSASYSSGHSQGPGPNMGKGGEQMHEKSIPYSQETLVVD
Method: (§1) (Me)lan apelin variants were tested with cAMP and beta arrestin assays from the company DiscoverX.

hAPJ [3] = biological target: T1, hAPJ; assay: beta arrestin assay (DiscoverX); assay type: cell-based; details: for Ratio β-arrestin/cAMP: ratio of β-arrestin EC50 to cAMP EC50; for EC50: read-out: β-arrestin EC50
Method: as §1

Row | Molecule | half-life at 0.1 mg/ml [1] [h] | Ratio β-arrestin/cAMP (hAPJ [3]) | further results
1 | CSCC[C@H](NC(=O)[C@@H]1CCCN1C(=O)CNC(=O)[C@@H]1CSC(C)C(NC(=O)[C@H](CC(C)C)NC(=O)[C@H](CCCNC(=N)N)NC(=O)[C@@H]2CCCN2C(=O)[C@H](CCCNC(=N)N)NC(=O)[C@@H]2CCC(=O)N2)C(=O)N[C@@H](Cc2c[nH]cn2)C(=O)N[C@@H](CCCCN)C(=O)N1)C(=O)N[C@H](C(=O)N[C@@H](Cc1ccccc1)C(=O)O)C(C)C (some centres unmarked) [pERPRLmeLanHKmeLanGPMVF] ([pGlu]RPRL[ξAbu(3ξ-yl)]HKCGPMVF-OH; thioether 6-9) | 10 |  | 
2 | CSCC[C@H](NC(=O)[C@@H]1CCCN1C(=O)CNC(=O)C1CSC(C)C(NC(=O)[C@H](CC(C)C)NC(=O)[C@H](CCCNC(=N)N)NC(=O)[C@@H]2CCCN2C(=O)[C@H](CCCNC(=N)N)NC(=O)[C@@H]2CCC(=O)N2)C(=O)N[C@@H](Cc2c[nH]cn2)C(=O)N[C@@H](CCCCN)C(=O)N1)C(=O)N1CCC[C@H]1C(=O)N[C@@H](Cc1ccccc1)C(N)=O (some centres unmarked) [amidated pEApeM6, pERPRLmeLanHKmeLanGPMPF-NH2] ([pGlu]RPRL[ξAbu(3ξ-yl)]HK[ξC]GPMPF-NH2; thioether 6-9) |  | 0.75 | EC50 (hAPJ [2]): 0.08 µM; EC50 (hAPJ [3]): 0.06 µM
3 | CSCC[C@H](NC(=O)[C@@H]1CSCC(NC(=O)[C@H](CC(C)C)NC(=O)[C@H](CCCNC(=N)N)NC(=O)[C@@H]2CCCN2C(=O)[C@H](CCCNC(=N)N)NC(=O)[C@@H]2CCC(=O)N2)C(=O)N[C@@H](Cc2c[nH]cn2)C(=O)N[C@@H](CCCCN)C(=O)NCC(=O)N2CCC[C@H]2C(=O)N1)C(=O)N1CCC[C@H]1C(=O)N[C@@H](Cc1ccccc1)C(=O)O (some centres unmarked) [pEApeM12S, pERPRLLanHKGPLanMPF] | 3 |  | 
4 | CC(C)C[C@H](NC(=O)[C@H](CCCNC(=N)N)NC(=O)[C@@H]1CCCN1C(=O)[C@H](CCCNC(=N)N)NC(=O)[C@@H]1CCC(=O)N1)C(=O)NC1CSCC(C(=O)N2CCC[C@H]2C(=O)N[C@@H](Cc2ccccc2)C(=O)O)NC(=O)[C@@H]2CCCN2C(=O)CNC(=O)[C@H](CCCCN)NC(=O)[C@H](Cc2c[nH]cn2)NC1=O (single isomer, unassigned) [pEApeM9S II, pERPRLLanHKGPLanPF] |  | 200 | 
5 | CSCC[C@@H]1NC(=O)[C@@H]2CCCN2C(=O)CNC(=O)C(NC(=O)[C@H](Cc2c[nH]cn2)NC(=O)[C@H](C)NC(=O)[C@H](CC(C)C)NC(=O)[C@H](CCCNC(=N)N)NC(=O)[C@@H]2CCCN2C(=O)[C@H](CCCNC(=N)N)NC(=O)[C@@H](N)CCC(N)=O)CSCC(C(=O)N[C@@H](Cc2ccccc2)C(=O)O)NC1=O (some centres unmarked) [ApeT8cS] |  |  | activity in Example 8 (hAPJ [2]): significant activity
6 | CSCC[C@H](NC(=O)[C@@H]1CCCN1C(=O)CNC(=O)[C@@H]1CSC(C)C(NC(=O)[C@H](CC(C)C)NC(=O)[C@H](CCCNC(=N)N)NC(=O)[C@@H]2CCCN2C(=O)[C@H](CCCNC(=N)N)NC(=O)[C@@H]2CCC(=O)N2)C(=O)N[C@@H](Cc2c[nH]cn2)C(=O)N[C@@H](CCCCN)C(=O)N1)C(=O)N1CCC[C@H]1C(=O)N[C@@H](Cc1ccccc1)C(=O)O (some centres unmarked) [pEApeM6, pERPRLmeLanHKmeLanGPMPF] ([pGlu]RPRL[ξAbu(3ξ-yl)]HKCGPMPF-OH; thioether 6-9) | 8 |  | 
7 | CSCC[C@H](NC(=O)[C@@H]1CCCN1C(=O)[C@@H]1CSC(C)C(NC(=O)[C@H](CC(C)C)NC(=O)[C@H](CCCNC(=N)N)NC(=O)[C@@H]2CCCN2C(=O)[C@H](CCCNC(=N)N)NC(=O)[C@@H]2CCC(=O)N2)C(=O)N[C@@H](Cc2c[nH]cn2)C(=O)N[C@@H](CCCCN)C(=O)NCC(=O)N1)C(=O)N1CCC[C@H]1C(=O)N[C@@H](Cc1ccccc1)C(=O)O (some centres unmarked) [pEApeM7, pERPRLmeLanHKGmeLanPMPF] ([pGlu]RPRL[ξAbu(3ξ-yl)]HKGCPMPF-OH; thioether 6-10) | 15 |  | 
8 | CC=C(NC(=O)[C@H](CCSC)NC(=O)[C@@H]1CCCN1C(=O)C1CSC(C)C(NC(=O)[C@H](CC(C)C)NC(=O)[C@H](CCCNC(=N)N)NC(=O)[C@@H]2CCCN2C(=O)[C@H](CCCNC(=N)N)NC(=O)[C@@H]2CCC(=O)N2)C(=O)N[C@@H](Cc2c[nH]cn2)C(=O)N[C@@H](CCCCN)C(=O)N1)C(=O)N[C@@H](Cc1ccccc1)C(=O)O (some centres unmarked) [pEApeM5T, pERPRLmeLanHKmeLanPMDhbF] ([pGlu]RPRL[ξAbu(3ξ-yl)]HK[ξC]PM[X1]F-OH; thioether 6-9; C-terminus assumed) | 24 | 0.16 | stability in rat plasma [1]: enhanced stability; EC50 (hAPJ [2]): 0.19 µM; EC50 (hAPJ [3]): 0.032 µM
9 | CSCC[C@@H]1NC(=O)[C@@H]2CCCN2C(=O)CNC(=O)[C@H](CCCCN)NC(=O)[C@H](Cc2c[nH]cn2)NC(=O)C(NC(=O)[C@H](CC(C)C)NC(=O)[C@H](CCCNC(=N)N)NC(=O)[C@@H]2CCCN2C(=O)[C@H](CCCNC(=N)N)NC(=O)[C@@H]2CCC(=O)N2)CSCC(C(=O)N2CCC[C@H]2C(=O)N[C@@H](Cc2ccccc2)C(=O)O)NC1=O (single isomer, unassigned) [pEApeM27S I, pERPRLLanHKGPMLanPF] | > 24 | 50 | 
10 | CSCC[C@H](NC(=O)[C@@H]1CCCN1C(=O)[C@@H]1CSCC(NC(=O)[C@H](CC(C)C)NC(=O)[C@H](CCCNC(=N)N)NC(=O)[C@@H]2CCCN2C(=O)[C@H](CCCNC(=N)N)NC(=O)[C@@H]2CCC(=O)N2)C(=O)N[C@@H](C)C(=O)N[C@@H](Cc2c[nH]cn2)C(=O)N[C@@H](CCCCN)C(=O)N1)C(=O)N1CCC[C@H]1C(=O)N[C@@H](Cc1ccccc1)C(=O)O (some centres unmarked) [pEApeI5cS I, pERPRLLanAHKLanPMPF] | 3 |  | 
11 | QRPRLAHKGPMPF [reference compound] |  | 20 | EC50 (hAPJ [2]): 0.0006 µM; EC50 (hAPJ [3]): 0.012 µM
12 | CSCC[C@H](NC(=O)[C@@H]1CCCN1C(=O)CNC(=O)[C@H](CCCCN)NC(=O)C1CSC(C)C(NC(=O)[C@@H]2CCCN2C(=O)[C@H](CCCNC(=N)N)NC(=O)[C@@H]2CCC(=O)N2)C(=O)N[C@@H](CCCNC(=N)N)C(=O)N[C@@H](CC(C)C)C(=O)N[C@@H](C)C(=O)N1)C(=O)N1CCC[C@H]1C(=O)N[C@@H](Cc1ccccc1)C(=O)O (some centres unmarked) [pEApeI3c, pERPmeLanRLAmeLanKGPMPF] ([pGlu]RP[ξAbu(3ξ-yl)]RLA[ξC]KGPMPF-OH; thioether 4-8; C-terminus assumed) | 2 | 167 | EC50 (hAPJ [2]): 0.017 µM; EC50 (hAPJ [3]): 2.84 µM
13 | CSCC[C@H](NC(=O)[C@@H]1CCCN1C(=O)CNC(=O)[C@@H]1CSC(C)C(NC(=O)[C@H](CC(C)C)NC(=O)[C@H](CCCNC(=N)N)NC(=O)[C@@H]2CCCN2C(=O)[C@H](CCCNC(=N)N)NC(=O)[C@@H]2CCC(=O)N2)C(=O)N[C@@H](Cc2c[nH]cn2)C(=O)N[C@@H](CCCCN)C(=O)N1)C(=O)N1CCC[C@H]1C(=O)N[C@@H](C)C(=O)O (some centres unmarked) [pERPRLmeLanHKmeLanGPMPA] ([pGlu]RPRL[ξAbu(3ξ-yl)]HKCGPMPA-OH; thioether 6-9) | 7 |  | 
14 | CSCC[C@@H]1NC(=O)[C@@H]2CCCN2C(=O)CNC(=O)[C@H](CCCCN)NC(=O)[C@H](Cc2c[nH]cn2)NC(=O)C(NC(=O)[C@H](CC(C)C)NC(=O)[C@H](CCCNC(=N)N)NC(=O)[C@@H]2CCCN2C(=O)[C@H](CCCNC(=N)N)NC(=O)[C@@H]2CCC(=O)N2)CSC[C@@H](C(=O)N[C@@H](Cc2ccccc2)C(=O)O)NC1=O (some centres unmarked) [pEApeM26S I, pERPRLLanHKGPMLanF] | > 24 |  | 
